The source of these data is article PMC6133161, “Thiazoles with cyclopropyl fragment as antifungal, anticonvulsant, and anti-Toxoplasma gondii agents: synthesis, toxicity evaluation, and molecular docking study” (Medicinal Chemistry Research, 2018).

Data set [1] relates to Toxoplasma gondii RH strain. The data set can be described thus: [3H]-uracil incorporation assay in VERO host cells. The conditions noted are these: Toxoplasma gondii, Vero.
For data set [2], the system named is C. glabrata. The data set can be described thus: Broth microdilution MIC/MFC, clinical isolate. As to conditions: C. glabrata clinical strain. The class given is cell-based. The source says: (§1) In the study of antifungal activity of the compounds 3a–3j, 15 clinical strains of different species of yeasts from Candida species, namely C. albicans, C. dubliniensis C. famata, C. inconspicua, C. krusei, C. tropicalis, C. glabrata, C. lambica, C. kefyr, C. lusitaniae, C. parapsilosis, C. guilliermondii, C. lusitaniae, C. pulcherrima and C. sake were also used. These fungi were isolated by the author (from Department of Pharmaceutical Microbiology of Medical University in Lublin, Poland) from different clinical materials, e.g., from upper respiratory tract of hospitalized patients including cancer patients (i.e., with non-small cell lung cancer or hematological malignancies). Some patients were after pre-operative or post-operative chemotherapy (treated with etoposide or cis-platin given in doses according to the standard procedures), patients with chronic hepatitis C (undergoing peginterferon and ribavirin therapy or without antiviral therapy), patients with diabetes, elderly people, aged of 65 years old or older, staying in close population, such as a care centre and people staying outside the home care. The Ethical Committee of the Medical University of Lublin approved the study protocol (No. KE-0254/75/2011). The isolates were identified by standard diagnostic methods—biochemical microtest, e.g., API 20C AUX, ID 32C, API Candida (bioMérieux) on the basis of assimilation of various substrates. All the used microbial cultures were first subcultured on nutrient agar or Sabouraud agar for bacteria and fungi, respectively. The RPMI 1640 with MOPS (for fungi) were inoculated with the suspensions of fungal species. Microbial suspensions were prepared in sterile saline (0.85% NaCl) with an optical density of 0.5 McFarland standard scale (Wiegand et al. [2008]). Samples containing examined compounds were dissolved in dimethyl sulfoxide (DMSO). Furthermore, fungal suspensions were put onto Petri dishes with solid media containing 2 mg/ml of the tested compounds followed incubation under appropriate conditions. The inhibition of microbial growth was judged by comparison with a control culture prepared without any sample tested. Nystatin (Sigma) was used as a reference antifungal compound. Subsequently MIC minimal inhibitory concentration (MIC) of the compounds was examined by the microdilution broth method, using their two-fold dilutions in RPMI 1640 broth with MOPS prepared in 96-well polystyrene plates. Final concentrations of the compounds ranged from 1000 to 0.0038 µg/ml. Microbial suspensions were prepared in sterile saline with an optical density of 0.5 McFarland standard. Next fungal suspension was added per each well containing broth and various concentrations of the examined compounds. After incubation, the MIC was assessed spectrophotometric as the lowest concentration of the samples showing complete fungal growth inhibition. Appropriate DMSO, growth and sterile controls were carried out. The medium with no tested substances was used as a control (Wiegand et al. [2008]). The minimal fungicidal concentration (MFC) are defined as the lowest concentration of the compounds that is required to kill a particular fungal species. MFC was determined by removing the culture using for MIC determinations from each well and spotting onto appropriate agar medium. The plates were incubated. The lowest compounds concentration with no visible growth observed was assessed as a fungicidal concentration. All the experiments were repeated three times and representative data are presented.
(§2) The MFC/MIC ratios were calculated in order to determine fungicidal (MFC/MIC ≤ 4) or fungistatic (MFC/MIC > 4) effect of the tested compounds (O’Donnell et al. [2010]).
A general note: Broth dilution looks for growth in wells or tubes with falling amounts of substance.

For data set [3], the system named is C. lambica. Nature of the data set: Broth microdilution MIC/MFC, clinical isolate. The data set is classed as cell-based. As to conditions: C. lambica clinical strain.
From the text: as §1, §2

Data set [4] relates to C. dubliniensis. Nature of the data set: Broth microdilution MIC/MFC, clinical isolate. The class given is cell-based. As to conditions: C. dubliniensis clinical strain.
From the text: as §1, §2

Data set [5] concerns C. sake. The data set can be described thus: Broth microdilution MIC/MFC, clinical isolate. The class given is cell-based. As to conditions: C. sake clinical strain.
From the text: as §1, §2

Data set [6] concerns C. pulcherrima. Nature of the data set: Broth microdilution MIC/MFC, clinical isolate. The class given is cell-based. As to conditions: C. pulcherrima clinical strain.
From the text: as §1, §2

The test system of data set [7] is C. kefyr. The data set can be described thus: Broth microdilution MIC/MFC, clinical isolate. As to conditions: C. kefyr clinical strain. The data set is classed as cell-based.
From the text: as §1, §2

Data set [8] has as its system C. famata. The data set can be described thus: Broth microdilution MIC/MFC, clinical isolate. The class given is cell-based. As to conditions: C. famata clinical strain.
From the text: as §1, §2

Setting [9] is: read-out: Proliferation of Toxoplasma gondii RH strain ± SD.
Setting [10] is: Nakaseomyces glabratus, read-out: MFC.
[11] abbreviates: Nakaseomyces glabratus, read-out: MIC.
Where [12] appears, read: Pichia fermentans, read-out: MFC.
Setting [13] is: Pichia fermentans, read-out: MIC.
Setting [14] is: Candida dubliniensis, read-out: MFC.
The mark [15] stands for this setting: Candida dubliniensis, read-out: MIC.
Where [16] appears, read: Fermentozyma sake, read-out: MFC.
Setting [17] is: Fermentozyma sake, read-out: MIC.
The mark [18] stands for this setting: Kluyveromyces marxianus, read-out: MFC.
Where [19] appears, read: Kluyveromyces marxianus, read-out: MIC.
The mark [20] stands for this setting: Debaryomyces hansenii, read-out: MFC.
[21] abbreviates: Debaryomyces hansenii, read-out: MIC.

In brackets after ≈: the same amount, converted by molar mass. Read-outs that look alike come from different tables or passages of the source.

As a reminder, the IC50 is the midpoint of a concentration-inhibition curve. The term MIC denotes the smallest concentration in the dilution series that meets the test's criterion for growth inhibition. Regarding `O=[N+]([O-])c1ccc(-c2csc(N/N=C/C3CC3)n2)cc1` [Compound 3j, (E)-2-(2-(Cyclopropylmethylene)hydrazinyl)-4-(4-nitrophenyl)thiazole], the IC50 in data set [1] (read-out: IC50 anti-Tg) is 21.8 µg/mL (≈ 75.5 µM). In addition, the activity at 0.98 µg/mL in data set [1] (setting [9]) came to 91 ± 2.47%. In addition, the activity at 1.95 µg/mL in data set [1] (setting [9]) amounted to 94.44 ± 0.34%. In addition, the activity at 3.91 µg/mL in data set [1] (setting [9]) came out at 97.1 ± 4.63%. The activity at 7.81 µg/mL in data set [1] (setting [9]) stood at 96.7 ± 3.29%. The activity at 15.63 µg/mL in data set [1] (setting [9]) is 60 ± 7.86%. Further, the activity at 20 µg/mL in data set [1] (setting [9]) came out at 58.8 ± 1.67%. Further, in data set [1] (setting [9]), the activity at 25 µg/mL came to 40.3 ± 1.53%. Further, in data set [1] (setting [9]), the activity at 31.25 µg/mL was determined as 35.1 ± 424%. Moreover, the MFC was greater than 1000 µg/mL in data set [2] (setting [10]); greater than 1000 µg/mL in [3] (setting [12]); 0.48 µg/mL (≈ 1.66 µM) in data set [4] (setting [14]); 0.98 µg/mL (≈ 3.4 µM) in data set [5] (setting [16]); greater than 1000 µg/mL in data set [6] (read-out: MFC); greater than 1000 µg/mL in data set [7] (setting [18]). In addition, the MFC in data set [8] (setting [20]) turned out to be 31.2 µg/mL (≈ 108 µM). Besides, the MIC came to 125 µg/mL (≈ 434 µM) in data set [2] (setting [11]); 250 µg/mL (≈ 867 µM) in data set [3] (setting [13]); 0.24 µg/mL (≈ 0.832 µM) in data set [4] (setting [15]); 0.24 µg/mL (≈ 0.832 µM) in [5] (setting [17]); 7.81 µg/mL (≈ 27.1 µM) in data set [6] (read-out: MIC); 125 µg/mL (≈ 434 µM) in data set [7] (setting [19]). The MIC in data set [8] (setting [21]) is 1.95 µg/mL (≈ 6.76 µM).
On to `Cc1ccc(-c2csc(N/N=C/C3CC3)n2)cc1` [Compound 3d, (E)-2-(2-(Cyclopropylmethylene)hydrazinyl)-4-p-tolylthiazole], for which the activity at 0.98 µg/mL in data set [1] (setting [9]) amounted to 88.7 ± 2.63%. Further, in data set [1] (setting [9]), the activity at 1.95 µg/mL is 100 ± 4.54%. Besides, the activity at 3.91 µg/mL in data set [1] (setting [9]) was 93.4 ± 5.18%. In addition, the activity at 7.81 µg/mL in data set [1] (setting [9]) stood at 90.4 ± 3.29%. Besides, in data set [1] (setting [9]), the activity at 15.63 µg/mL worked out at 84.41 ± 0.08%. Besides, the MFC in data set [2] (setting [10]) was greater than 1000 µg/mL; in data set [3] (setting [12]) it was greater than 1000 µg/mL; in [4] (setting [14]) it was 0.12 µg/mL (≈ 0.466 µM); in [5] (setting [16]), 0.48 µg/mL (≈ 1.87 µM); in data set [6] (read-out: MFC), greater than 1000 µg/mL; in data set [7] (setting [18]), 7.81 µg/mL (≈ 30.3 µM). Moreover, the MFC in data set [8] (setting [20]) was found to be 3.91 µg/mL (≈ 15.2 µM). For the same compound, the MIC in data set [2] (setting [11]) was found to be 15.6 µg/mL (≈ 60.7 µM); in [3] (setting [13]), 15.6 µg/mL (≈ 60.7 µM); in [4] (setting [15]), 0.06 µg/mL (≈ 0.233 µM); in [5] (setting [17]), 0.12 µg/mL (≈ 0.466 µM); in data set [6] (read-out: MIC) it was 15.6 µg/mL (≈ 60.7 µM); in data set [7] (setting [19]), 1.95 µg/mL (≈ 7.58 µM). The MIC in data set [8] (setting [21]) came to 0.48 µg/mL (≈ 1.87 µM).
For orientation: melting point means the temperature of the solid-liquid transition. For the compound `Brc1ccc(-c2csc(N/N=C/C3CC3)n2)cc1` [Compound 3b, (E)-4-(4-Bromophenyl)-2-(2-(cyclopropylmethylene)hydrazinyl)thiazole], the melting point lay in the range of 165 to 167 °C. Further, in [1] (setting [9]), the activity at 0.98 µg/mL was 85.8 ± 10.6%, the activity at 1.95 µg/mL was found to be 99.3 ± 6.08%, the activity at 3.91 µg/mL was 107 ± 10.2% and the activity at 7.81 µg/mL stood at 111 ± 10.1%. Also, in data set [2] (setting [10]), the MFC is greater than 1000 µg/mL. In addition, the minimal inhibitory concentration (MIC) in data set [2] (setting [11]) came to 62.5 µg/mL (≈ 194 µM). The MFC in [4] (setting [14]) came to 0.06 µg/mL (≈ 0.186 µM). Also, the MIC in data set [4] (setting [15]) came to 0.06 µg/mL (≈ 0.186 µM). In addition, the MFC in [5] (setting [16]) worked out at 0.24 µg/mL (≈ 0.745 µM). In addition, the MIC in data set [5] (setting [17]) was determined as 0.06 µg/mL (≈ 0.186 µM). The MFC in data set [7] (setting [18]) is greater than 1000 µg/mL. In data set [7] (setting [19]), the minimal inhibitory concentration (MIC) was 15.6 µg/mL (≈ 48.5 µM). The MFC in [8] (setting [20]) is 0.98 µg/mL (≈ 3.04 µM). For the same compound, the MIC in data set [8] (setting [21]) was 0.12 µg/mL (≈ 0.372 µM).
On to `C[C@@H]1[C@H](O)[C@@H](C)/C=C/C=C/CC/C=C/C=C/C=C/C=C/C(O[C@H]2O[C@H](C)[C@@H](O)[C@H](N)[C@@H]2O)CC2O[C@](O)(CC(O)C(O)CCC(O)CC(O)CC(O)CC(=O)O[C@H]1C)CC(O)C2C(=O)O` (stereo partly drawn) [Nystatin, reference compound], for which the MFC was 0.48 µg/mL (≈ 0.518 µM) in data set [2]; 0.98 µg/mL (≈ 1.06 µM) in [3]; 0.12 µg/mL (≈ 0.13 µM) in data set [4]; 0.12 µg/mL (≈ 0.13 µM) in [5]; 0.24 µg/mL (≈ 0.259 µM) in data set [6]; 0.24 µg/mL (≈ 0.259 µM) in data set [7]. In data set [8], this compound had an MFC of 0.12 µg/mL (≈ 0.13 µM). Besides, the MFC/MIC in [2] turned out to be 1; in [3] it was 2; in data set [4] it was 1; in data set [5] it was 2; in data set [6], 2; in data set [7] it was 2. For the same compound, in data set [8], the MFC/MIC was determined as 2. In addition, the MIC in [2] was found to be 0.48 µg/mL (≈ 0.518 µM); in [3], 0.48 µg/mL (≈ 0.518 µM); in [4], 0.12 µg/mL (≈ 0.13 µM); in [5], 0.06 µg/mL (≈ 0.0648 µM); in data set [6] it was 0.12 µg/mL (≈ 0.13 µM); in [7] it was 0.12 µg/mL (≈ 0.13 µM). For the same compound, the MIC in data set [8] was found to be 0.06 µg/mL (≈ 0.0648 µM).
